Reference: patent US9593305B2, “Differentiation of pluripotent stem cells” (Janssen Biotech, Inc., priority 2008, dated 2017)

What was measured:
[1] = test system: H1 human embryonic stem cells; experiment: Analogue screening in combination with only GDF-8, SOX17 (Example 21, Tables 18 and 19); assay type: cell-based; set-up: Sox17 Expression: % of positive control / Cell Number: % of positive control: tested at 2.5 µM; conditions: compound in combination with GDF8; for Cell Number: Average Total Cell Number / Sox17 Expression: Average Total Intensity: four assay plates; for Cell Number: % of positive control / Sox17 Expression: % of positive control: relative to Activin A/Wnt3a of the same plate
Experimental: Briefly, clusters of H1 human embryonic stem cells were grown on reduced growth factor Matrigel™ (Invitrogen; Cat #356231)-coated tissue culture plastic. Cells were passaged using collagenase (Invitrogen; Cat #17104-019) treatment and gentle scraping, washed to remove residual enzyme, and plated with even dispersal at a ratio of 1:1 (surface area) on reduced growth factor […]™ (BD Biosciences; Cat #356231)-coated 96-well black plates (Packard ViewPlates; PerkinElmer; Cat #6005182) using volumes of 100 μl/well. Cells were allowed to attach and then recover log phase growth over a 1 to 3 day time period, feeding daily with MEF conditioned medium supplemented with 8 ng/ml bFGF (R&D Systems; Cat #233-FB). Plates were maintained at 37° C., 5% CO2 in a humidified box throughout the duration of assay.
Screening was conducted using a library of the analogue compounds. Compounds from this library were made available as 5 mM stocks in 96-well plate format, solubilized in 100% DMSO (Sigma; Cat #D2650) and stored at −80° C. The library compounds were further diluted to an intermediate concentration of 0.2 mM in 50 mM HEPES (Invitrogen; Cat #15630-080), 20% DMSO and stored at 4° C. Test conditions were performed in triplicate, feeding on alternating days over a four-day assay period. Assays were initiated by aspirating culture medium from each well followed by three washes in PBS (Invitrogen; Cat #14190) to remove residual growth factors. On the first day of assay, test volumes of 200 μl per well were added to each well using DMEM:F12 base medium (Invitrogen; Cat #11330-032) supplemented with 0.5% FCS (HyClone; Cat #SH30070.03) and 200 ng/ml GDF-8 (R&D Systems, Cat #788-G8) plus 2.5 μM compound. On the third day of assay, test volumes of 100 μl per well were added to each well using DMEM:F12 base medium supplemented with 2% FCS plus 200 ng/ml GDF-8 (R&D Systems, Cat #788-G8). Positive control samples contained the same base medium supplemented with FCS and 1000 ng/ml recombinant human activin A (PeproTech; Cat #120-14) throughout the four-day assay along with Wnt3a (20 ng/ml) on days 1 and 2. Negative control samples contained DMEM:F12 base medium supplemented with FCS, adding Wnt3a on days 1 and 2 but omitting treatment with activin A.
At the conclusion of four-days of culture, assay plates were washed twice with PBS (Invitrogen; Cat #14190), fixed with 4% paraformaldehyde (Alexis Biochemical; Cat #ALX-350-011) at room temperature for 20 minutes, then washed three times with PBS and permeabilized with 0.5% Triton X-100 (Sigma; Cat #T8760-2) for 20 minutes at room temperature. Cells were washed again three times with PBS and blocked with 4% chicken serum (Invitrogen; Cat #16110082) in PBS for 30 minutes at room temperature. Primary antibody (goat anti-human SOX17; R&D Systems; Cat #AF1924) was diluted 1:100 in 4% chicken serum and added to each well for one hour at room temperature. Alexa Fluor 488 conjugated secondary antibody (chicken anti-goat IgG; Molecular Probes; Cat #AZ1467) was diluted 1:200 in PBS and added to each sample well after washing three times with PBS. To counterstain nuclei, 4 μg/ml Hoechst 33342 (Invitrogen; Cat #H3570) was added for ten minutes at room temperature. Plates were washed once with PBS and left in 100 μl/well PBS for imaging.
Imaging was performed using an IN Cell Analyzer 1000 (GE Healthcare) utilizing the 51008bs dichroic for cells stained with Hoechst 33342 and Alexa Fluor 488. Exposure times were optimized from positive control wells and from untreated negative control wells stained with secondary antibody alone. Images from 15 fields per well were acquired to compensate for any cell loss during the bioassay and subsequent staining procedures. Measurements for total cell number and total SOX17 intensity were obtained from each well using IN Cell Developer Toolbox 1.7 (GE Healthcare) software. […]

[2] = test system: H1 human embryonic stem cells; experiment: Analog screening with GDF-8 and growth factor/agonist pool (Example 8, Tables 7 and 8); assay type: cell-based
Experimental: Briefly, clusters of H1 human embryonic stem cells were grown on reduced growth factor […]™ (Invitrogen; Cat #356231)-coated tissue culture plastic. Cells were passaged using collagenase (Invitrogen; Cat #17104-019) treatment and gentle scraping, washed to remove residual enzyme, and plated with even dispersal at a ratio of 1:1 (surface area) on reduced growth factor […]™-coated 96-well black plates (Packard ViewPlates; PerkinElmer; Cat #6005182) using volumes of 100 μl/well. Cells were allowed to attach as clusters and then recover log phase growth over a 1 to 3 day period, feeding daily with MEF conditioned medium supplemented with 8 ng/ml bFGF (R&D Systems; Cat #233-FB). Plates were maintained at 37° C., 5% CO2 in a humidified box throughout the duration of assay. Growth factors purchased from R&D Systems were EGF (Cat #236-EG), FGF4 (Cat #235-F4), PDGF-A (Cat #221-AA), PDGF-D (Cat #1159-SB), PDGF-A/B (Cat #222-AB). […] Screening was conducted using a library of compounds that were made available as 5 mM stocks in 96-well plate format, solubilized in 100% DMSO (Sigma; Cat #D2650) and stored at −80° C. The compounds were further diluted to an intermediate concentration of 0.2 mM in 50 mM HEPES (Invitrogen; Cat #15630-080), 20% DMSO and stored at 4° C. Test conditions were performed in single wells, feeding on alternate days over a four-day assay period. Primary screening assays were initiated by aspirating culture medium from each well followed by three washes in PBS (Invitrogen; Cat #14190) to remove residual growth factors and serum. On the first day of assay, test volumes of 200 μl per well were added back containing DMEM:F12 base medium (Invitrogen; Cat #11330-032) supplemented with 0.5% FCS (HyClone; […] Cat #1324-WN) plus 2.5 μM compound. All remaining growth factors were tested at a final assay concentration of 50 ng/ml (EGF, FGF4, PDGF-A, PDGF-A/B, VEGF) with the exception of GDF-8 tested at 25 ng/ml. […] Cat #120-14). […] All remaining growth factors were tested at a final assay concentration of 50 ng/ml (EGF, FGF4, PDGF-A, PDGF-A/B, VEGF) with the exception of GDF-8 tested at 25 ng/ml. […] Cat #120-14). Negative control samples contained DMEM:F12 base medium supplemented with 2% FCS. […] At the conclusion of four-days of culture, assay plates were washed twice with PBS (Invitrogen; Cat #14190), fixed with 4% paraformaldehyde (Alexis Biochemical; Cat #ALX-350-011) at room temperature for 20 minutes, then washed three times with PBS and permeabilized with 0.5% Triton X-100 (Sigma; Cat #T8760-2) for 20 minutes at room temperature. Cells were washed again three times with PBS and blocked with 4% chicken serum (Invitrogen; Cat #16110082) in PBS for 30 minutes at room temperature. Primary antibody (goat anti-human SOX17; R&D Systems; Cat #AF1924) was diluted 1:100 in 4% chicken serum and added to each well for one hour at room temperature. Alexa Fluor 488 conjugated secondary antibody (chicken anti-goat IgG; Molecular Probes; Cat #AZ1467) was diluted 1:200 in PBS and added to each sample well after washing three times with PBS. To counterstain nuclei, 4 μg/ml Hoechst 33342 (Invitrogen; Cat #H3570) was added for ten minutes at room temperature. Plates were washed once with PBS and left in 100 μl/well PBS for imaging. Imaging was performed using an IN Cell Analyzer 1000 (GE Healthcare) utilizing the 51008bs dichroic for cells stained with Hoechst 33342 and Alexa Fluor 488. Exposure times were optimized from positive control wells and from untreated negative control wells stained with secondary antibody alone. Images from 15 fields per well were acquired to compensate for any cell loss during the bioassay and subsequent staining procedures. […] Segmentation for the nuclei was determined based on gray-scale levels (baseline range 100-300) and nuclear size. Averages and standard deviations were calculated for each replicate data set. […]

[3] = Plate 1, compound + EGF, FGF, PDGF-A, VEGF, PDGF-D, muscimol, GDF8
[4] = Plate 1, compound + EGF, FGF, PDGF-A, VEGF, PDGF-D, muscimol, GDF8, positive control Activin A/Wnt3a
[5] = Table 8: hits with greater than 25% activity of the positive control, with GDF-8 and growth factors/agonists
[6] = Plate 2, compound + EGF, FGF, PDGF-A, VEGF, PDGF-D, muscimol, GDF8
[7] = Plate 2, compound + EGF, FGF, PDGF-A, VEGF, PDGF-D, muscimol, GDF8, positive control Activin A/Wnt3a

Structure (SMILES) | Cell Number: Average Total Cell Number [1] | Sox17 Expression: Average Total Intensity [1] | Cell Number: % of positive control [1] [%] | Sox17 Expression: % of positive control [1] [%] | Cell Number, Average Total Cell Number [2, 3] | Sox17 Expression, Average Total Intensity [2, 3] | Cell Number, % of positive control [2, 4] | Sox17 Expression, % of positive control [2, 4] | Cell Number, % of positive control [2, 5] | Sox17 Expression, % of positive control [2, 5] | Sox17 Expression, Average Total Intensity [2, 5] | Cell Number, Average Total Cell Number [2, 6] | Sox17 Expression, Average Total Intensity [2, 6] | Cell Number, % of positive control [2, 7] | Sox17 Expression, % of positive control [2, 7]
O=C1CCN2CCN(CC2)Cc2cc(Cl)cc(c2)Nc2ncnc(n2)-c2ccc(F)c(c2)CCCN1 [Compound 24, 5-Chloro-17-fluoro-1,8,10,12,22,26,32-heptaazapentacyclo[24.2.2.1˜3,7˜0.1˜9,13˜0.1˜14,18˜]tritriaconta-3(33), 4,6,9(32), 10,12,14(31), 15,17-nonaen-23-one] | 5012 | 2.64E+07 | 33.4 | 7.7 | 12714 | 2.46E+08 | 94.9 % of positive control | 98.2 % of positive control | 94.9 % of positive control | 98.2 % of positive control | 2.46E+08 |  |  |  | 
O=C1NCCCc2cc(ccc2F)-c2ncnc(n2)Nc2cc(Cl)cc(c2)CN2CCCC1C2 (centres unmarked) [Compound 26, 10-Chloro-25-fluoro-3,5,7,14,20,31-hexaazapentacyclo[22.3.1.1˜2,6˜0.1˜8,12˜0.1˜14,18˜]hentriaconta-1(28), 2(31), 3,5,8(30), 9,11,24,26-nonaen-19-one] | 4896 | 1.65E+07 | 32.6 | 4.8 | 7415 | 8.30E+07 | 55.4 % of positive control | 33.1 % of positive control | 55.4 % of positive control | 33.1 % of positive control | 8.30E+07 |  |  |  | 
O=C1CCN2CCN(CC2)Cc2cc(ccc2Cl)Nc2ncnc(n2)-c2ccnc(c2)CCCN1 [Compound 27, 4-Chloro-1,8,10,12,17,22,26,32-octaazapentacyclo[24.2.2.1˜3,7˜1.˜9,13˜0.1˜14,18˜1]tritriaconta-3(33), 4,6,9(32), 10,12,14(31), 15,17-nonaen-23-one] | 3721 | 1.19E+07 | 26.7 | 3.9 |  |  |  |  | 50.9 % of positive control | 30.8 % of positive control | 8.81E+07 | 8044 | 8.81E+07 | 50.9 % of positive control | 30.8 % of positive control
CN1CCCc2cccc(c2)-c2ncnc(n2)Nc2cccc(c2)CCNC(=O)C1 [Compound 28, 18-Methyl-3,5,7,15,18,28-hexaazatetracyclo[20.3.1.1˜2,6˜0.1˜8,12˜]octacosa-1(26), 2(28), 3,5,8(27), 9,11,22,24-nonaen-16-one] | 5236 | 4.03E+07 | 37.5 | 13.1 |  |  |  |  | 48.0 % of positive control | 30.7 % of positive control | 8.77E+07 | 7591 | 8.77E+07 | 48.0 % of positive control | 30.7 % of positive control
